Results: PubChem BioAssay AID1963427 (Molecular Pharmacology Branch, DTP, NCI, 2024)

System: 317291-083-R-J1-PDC complex spheroid growth
Assay: Anticancer human tumor 317291-083-R-J1-PDC patient-derived soft tissue sarcoma cell line growth inhibition [Asc]
Settings: for IC50: curve of first compound; for viability, T/C: stronger effect = lower value
Method in brief: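 Spheroid model: tumor line + HUVEC + hMSC. Single agents and combinations; top conc. at/near clinical Cmax (10 microM if undetermined), half-log dilutions. DMSO stocks at 800-fold test concentration.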
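Note: compound exposure lasted seven days after spheroids formed for three days.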
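Throughout, for viability, T/C: 100% = DMSO vehicle control wells.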

IC50 (second compound 0.00949 µM): 540 nM | IC50 (second compound 0.03 µM): 448 nM | IC50 (second compound 0.0949 µM): 549 nM | IC50 (second compound 0.3 µM): 526 nM | IC50 (second compound 0.949 µM): 528 nM | IC50 (second compound 3 µM): 389 nM
SMILES: O=C(c1ccc(F)c(F)c1Nc1ccc(I)cc1F)N1CC(O)([C@@H]2CCCCN2)C1 + CCN1C(C(=O)NC23CCC(C(=O)O)(CC2)CC3)C(c2cccc(Cl)c2F)C2(C(=O)Nc3cc(Cl)ccc32)C12CCCCC2
viability, T/C (second compound 0.00949 µM, first compound 0.00316 µM): 101% | viability, T/C (second compound 0.00949 µM, first compound 0.01 µM): 89% | viability, T/C (second compound 0.00949 µM, first compound 0.0316 µM): 106% | viability, T/C (second compound 0.00949 µM, first compound 0.1 µM): 101% | viability, T/C (second compound 0.00949 µM, first compound 0.316 µM): 71.9% | viability, T/C (second compound 0.00949 µM, first compound 1 µM): 24.8% | viability, T/C (second compound 0.03 µM, first compound 0.00316 µM): 91.2% | viability, T/C (second compound 0.03 µM, first compound 0.01 µM): 94.8% | viability, T/C (second compound 0.03 µM, first compound 0.0316 µM): 85% | viability, T/C (second compound 0.03 µM, first compound 0.1 µM): 117% | viability, T/C (second compound 0.03 µM, first compound 0.316 µM): 64.9% | viability, T/C (second compound 0.03 µM, first compound 1 µM): 15.8% | viability, T/C (second compound 0.0949 µM, first compound 0.00316 µM): 103% | viability, T/C (second compound 0.0949 µM, first compound 0.01 µM): 90.8% | viability, T/C (second compound 0.0949 µM, first compound 0.0316 µM): 98.2% | viability, T/C (second compound 0.0949 µM, first compound 0.1 µM): 113% | viability, T/C (second compound 0.0949 µM, first compound 0.316 µM): 69.8% | viability, T/C (second compound 0.0949 µM, first compound 1 µM): 28.4% | viability, T/C (second compound 0.3 µM, first compound 0.00316 µM): 124% | viability, T/C (second compound 0.3 µM, first compound 0.01 µM): 95.1% | viability, T/C (second compound 0.3 µM, first compound 0.0316 µM): 86.3% | viability, T/C (second compound 0.3 µM, first compound 0.1 µM): 107% | viability, T/C (second compound 0.3 µM, first compound 0.316 µM): 71.4% | viability, T/C (second compound 0.3 µM, first compound 1 µM): 23% | viability, T/C (second compound 0.949 µM, first compound 0.00316 µM): 105% | viability, T/C (second compound 0.949 µM, first compound 0.01 µM): 105% | viability, T/C (second compound 0.949 µM, first compound 0.0316 µM): 114% | viability, T/C (second compound 0.949 µM, first compound 0.1 µM): 104% | viability, T/C (second compound 0.949 µM, first compound 0.316 µM): 72.2% | viability, T/C (second compound 0.949 µM, first compound 1 µM): 22.4% | viability, T/C (second compound 3 µM, first compound 0.00316 µM): 105% | viability, T/C (second compound 3 µM, first compound 0.01 µM): 92.7% | viability, T/C (second compound 3 µM, first compound 0.0316 µM): 96.8% | viability, T/C (second compound 3 µM, first compound 0.1 µM): 90.2% | viability, T/C (second compound 3 µM, first compound 0.316 µM): 55.4% | viability, T/C (second compound 3 µM, first compound 1 µM): 24.8%
